Measured values from US7419969B2 (Bristol-Myers Squibb Company, priority 2004, dated 2008).

target: T1, HIV-integrase (Human immunodeficiency virus type 1 group M subtype B, UniProt P04585); assay: in-vitro activity against HIV-integrase (HIV Integrase Inhibition, SPA bead assay); type: biochemical; conditions: Table 1; recombinant integrase, activity class
T1 construct: Recombinant integrase (0.26 ng) was incubated with the beads
Experimental: To evaluate in-vitro activity against HIV-integrase, 5 pmole of biotin labeled substrate DNA was bound to 100 μg of Streptavidin coated PVT SPA beads (Amersham Pharmacia Biotech). Recombinant integrase (0.26 ng) was incubated with the beads for 90 min at 37° C. Unbound enzyme was removed by washing the complex followed by addition of inhibitors and […] of P33 labeled target DNA. The reaction was stopped by adding EDTA to a final concentration of 10 mM. Samples were counted in TopCountNXT (Packard) and the CPM was used as a measure of integration. The reaction condition was as described in Engelman, A. and Craigie, R. J. Vitrol. 1996, 69, 5908. The sequences of substrate and target DNA were described in Nucleic Acid Research 1994, 22, 1121.

| SMILES | IC50 [nM] |
| --- | --- |
| O=C(NCc1ccc(F)cc1N1CCCCS1(=O)=O)c1nc2n(c(=O)c1O)CCOC21CCCC1 [Example 34, N-[[4-fluoro-2-(tetrahydro-1,1-dioxido-2H-1,2-thiazin-2-yl)phenyl]methyl]-6′,7′-dihydro-3′-hydroxy-4′-oxo-spiro[cyclopentane-1,9′(4′H)-pyrimido[2,1-c][1,4]oxazine]-2′-carboxamide] | 1 to 10 |
| O=C(NCc1ccccc1N1CCCCS1(=O)=O)c1nc2n(c(=O)c1O)CCOC21CCCC1 [Example 35, 6′,7′-dihydro-3′-hydroxy-4′-oxo-N-[[2-(tetrahydro-1,1-dioxido-2H-1,2-thiazin-2-yl)phenyl]methyl]-spiro[cyclopentane-1,9′(4′H)-pyrimido[2,1-c][1,4]oxazine]-2′-carboxamide] | 10 to 100 |
| O=C(NCc1ccc(F)cc1)c1nc2n(c(=O)c1O)CCOC21CCOC1 (stereo not shown) [Example 36, N-[(4-fluorophenyl)methyl]-4,5,6′,7′-tetrahydro-3′-hydroxy-4′-oxo-spiro[furan-3(2H),9′(4′H)-pyrimido[2,1-c][1,4]oxazine]-2′-carboxamide] | 1 to 10 |
| Cc1cc(CNC(=O)c2nc3n(c(=O)c2O)CCOC32CCOC2)ccc1F (stereo not shown) [Example 37, N-[(4-fluoro-3-methylphenyl)methyl]-4,5,6′,7′-tetrahydro-3′-hydroxy-4′-oxo-spiro[furan-3(2H),9′(4′H)-pyrimido[2,1-c][1,4]oxazine]-2′-carboxamide] | 1 to 10 |
| O=C(NCc1ccc(F)cc1-n1cncn1)c1nc2n(c(=O)c1O)CCOC21CCOC1 (stereo not shown) [Example 38] | 1 to 10 |
| CSc1cc(F)ccc1CNC(=O)c1nc2n(c(=O)c1O)CCOC21CCOC1 (stereo not shown) [Example 39, N-[[4-fluoro-2-(methylthio)phenyl]methyl]-4,5,6′,7′-tetrahydro-3′-hydroxy-4′-oxo-spiro[furan-3(2H),9′(4′H)-pyrimido[2,1-c][1,4]oxazine]-2′-carboxamide] | 1 to 10 |
| O=C(NCc1ccc(F)cc1)c1nc2n(c(=O)c1O)CCOC21CCOCC1 [Example 40, N-[(4-fluorophenyl)methyl]-2,3,5,6,6′,7′-hexahydro-3′-hydroxy-4′-oxo-spiro[4H-pyran-4,9′(4′H)-pyrimido[2,1-c][1,4]oxazine]-2′-carboxamide] | 1 to 10 |
| O=C(NCc1ccc(F)cc1-n1cncn1)c1nc2n(c(=O)c1O)CCOC21CCOCC1 [Example 41] | 1 to 10 |
| O=C(NCc1ccc(F)cc1N1CCCCS1(=O)=O)c1nc2n(c(=O)c1O)CCOC21CCOCC1 [Example 42, N-[[4-fluoro-2-(tetrahydro-1,1-dioxido-2H-1,2-thiazin-2-yl)phenyl]methyl]-2,3,5,6,6′,7′-hexahydro-3′-hydroxy-4′-oxo-spiro[4H-pyran-4,9′(4′H)-pyrimido[2,1-c][1,4]oxazine]-2′-carboxamide] | 1 to 10 |
| O=C(NCc1ccccc1N1CCCCS1(=O)=O)c1nc2n(c(=O)c1O)CCOC21CCOCC1 [Example 43, N-[[2-(tetrahydro-1,1-dioxido-2H-1,2-thiazin-2-yl)phenyl]methyl]-2,3,5,6,6′,7′-hexahydro-3′-hydroxy-4′-oxo-spiro[4H-pyran-4,9′(4′H)-pyrimido[2,1-c][1,4]oxazine]-2′-carboxamide] | 10 to 100 |
| CS(=O)(=O)c1cc(F)ccc1CNC(=O)c1nc2n(c(=O)c1O)CCOC21CCOCC1 [Example 44, N-[[4-fluoro-2-(methylsulfonyl)phenyl]methyl]-2,3,5,6,6′,7′-hexahydro-3′-hydroxy-4′-oxo-spiro[4H-pyran-4,9′(4′H)-pyrimido[2,1-c][1,4]oxazine]-2′-carboxamide] | 1 to 10 |
| Cc1cc(CNC(=O)c2nc3n(c(=O)c2O)CCOC32CCOCC2)ccc1F [Example 45, N-[(4-fluoro-3-methylphenyl)methyl]-2,3,5,6,6′,7′-hexahydro-3′-hydroxy-4′-oxo-spiro[4H-pyran-4,9′(4′H)-pyrimido[2,1-c][1,4]oxazine]-2′-carboxamide] | 1 to 10 |
| COc1ccc(CNC(=O)c2nc3n(c(=O)c2O)CCOC32CCOCC2)c(OC)c1 [Example 46, N-[(2,4-dimethoxyphenyl)methyl]-2,3,5,6,6′,7′-hexahydro-3′-hydroxy-4′-oxo-spiro[4H-pyran-4,9′(4′H)-pyrimido[2,1-c][1,4]oxazine]-2′-carboxamide] | 10 to 100 |
| CN(C)S(=O)(=O)c1cc(F)ccc1CNC(=O)c1nc2n(c(=O)c1O)CCOC21CCOCC1 [Example 47, N-[[2-[(dimethylamino)sulfonyl]-4-fluorophenyl]methyl]-2,3,5,6,6′,7′-hexahydro-3′-hydroxy-4′-oxo-spiro[4H-pyran-4,9′(4′H)-pyrimido[2,1-c][1,4]oxazine]-2′-carboxamide] | 10 to 100 |
| Cc1ccc(CNC(=O)c2nc3n(c(=O)c2O)CCOC32CCOCC2)cc1C [Example 48, N-[(3,4-dimethylphenyl)methyl]-2,3,5,6,6′,7′-hexahydro-3′-hydroxy-4′-oxo-spiro[4H-pyran-4,9′(4′H)-pyrimido[2,1-c][1,4]oxazine]-2′-carboxamide] | 1 to 10 |
| Cc1ncnn1-c1cc(F)ccc1CNC(=O)c1nc2n(c(=O)c1O)CCOC21CCOCC1 [Example 49, N-[[4-fluoro-2-(5-methyl-1H-1,2,4-triazol-1-yl)phenyl]methyl]-2,3,5,6,6′, 7-hexahydro-3′-hydroxy-4′-oxo-spiro[4H-pyran-4,9′(4′H)-pyrimido[2,1-c][1,4]oxazine]-2′-carboxamide] | 1 to 10 |
| Cc1ncn(-c2cc(F)ccc2CNC(=O)c2nc3n(c(=O)c2O)CCOC32CCOCC2)n1 [Example 50, N-[[4-fluoro-2-(3-methyl-1H-1,2,4-triazol-1-yl)phenyl]methyl]-2,3,5,6,6′,7′-hexahydro-3′-hydroxy-4′-oxo-spiro[4H-pyran-4,9′(4′H)-pyrimido[2,1-c][1,4]oxazine]-2′-carboxamide] | 1 to 10 |
| O=C(NCc1ccc(F)cc1-n1cncn1)c1nc2n(c(=O)c1O)CCOC21CCC1 [Example 51, N-[[4-fluoro-2-(1H-1,2,4-triazol-1-yl)phenyl]methyl]-6′,7′-dihydro-3′-hydroxy-4′-oxo-spiro[cyclobutane-1,9′(4′H)-pyrimido[2,1-c][1,4]oxazine]-2′-carboxamide] | 1 to 10 |
| O=C(NCc1ccc(F)cc1)c1nc2n(c(=O)c1O)CCOC21CCC1 [Example 52, N-[(4-fluorophenyl)methyl]-6′,7′-dihydro-3′-hydroxy-4′-oxo-spiro[cyclobutane-1,9′(4′H)-pyrimido[2,1-c][1,4]oxazine]-2′-carboxamide] | 1 to 10 |
| CS(=O)(=O)c1cc(F)ccc1CNC(=O)c1nc2n(c(=O)c1O)CCOC21CCC1 [Example 53, N-[[4-fluoro-2-(methylsulfonyl)phenyl]methyl]-6′,7′-dihydro-3′-hydroxy-4′-oxo-spiro[cyclobutane-1,9′(4′H)-pyrimido[2,1-c][1,4]oxazine]-2′-carboxamide] | 1 to 10 |
| CN(C)S(=O)(=O)c1cc(F)ccc1CNC(=O)c1nc2n(c(=O)c1O)CCOC21CCC1 [Example 54, N-[[2-[(dimethylamino)sulfonyl]-4-fluorophenyl]methyl]-6′,7′-dihydro-3′-hydroxy-4′-oxo-spiro[cyclobutane-1,9′(4′H)-pyrimido[2,1-c][1,4]oxazine]-2′-carboxamide] | 1 to 10 |
| O=C(NCc1ccc(F)cc1N1CCCCS1(=O)=O)c1nc2n(c(=O)c1O)CCOC21CCC1 [Example 55, N-[[4-fluoro-2-(tetrahydro-1,1-dioxido-2H-1,2-thiazin-2-yl)phenyl]methyl]-6′,7′-dihydro-3′-hydroxy-4′-oxo-spiro[cyclobutane-1,9′(4′H)-pyrimido[2,1-c][1,4]oxazine]-2′-carboxamide] | 1 to 10 |
| O=C(NCc1ccccc1N1CCCCS1(=O)=O)c1nc2n(c(=O)c1O)CCOC21CCC1 [Example 56, N-[[2-(tetrahydro-1,1-dioxido-2H-1,2-thiazin-2-yl)phenyl]methyl]-6′,7′-dihydro-3′-hydroxy-4′-oxo-spiro[cyclobutane-1,9′(4′H)-pyrimido[2,1-c][1,4]oxazine]-2′-carboxamide] | 10 to 100 |
| Cc1ncnn1-c1cc(F)ccc1CNC(=O)c1nc2n(c(=O)c1O)CCOC21CCC1 [Example 57, N-[[4-fluoro-2-(5-methyl-1H-1,2,4-triazol-1-yl)phenyl]methyl]-6′,7′-dihydro-3′-hydroxy-4′-oxo-spiro[cyclobutane-1,9′(4′H)-pyrimido[2,1-c][1,4]oxazine]-2′-carboxamide] | 1 to 10 |
| CS(=O)(=O)c1cc(F)ccc1CNC(=O)c1nc2n(c(=O)c1O)CCCOC21CCC1 [Example 58, N-[[4-fluoro-2-(methylsulfonyl)phenyl]methyl]-7′,8′-dihydro-3′-hydroxy-4′-oxo-spiro[cyclobutane-1,10′(4′H)-[6H]pyrimido[2,1-c][1,4]oxazepine]-2′-carboxamide] | 10 to 100 |
| O=C(NCc1ccc(F)cc1)c1nc2n(c(=O)c1O)CCCOC21CCC1 [Example 59, N-[(4-fluorophenyl)methyl]-7′,8′-dihydro-3′-hydroxy-4′-oxo-spiro[cyclobutane-1,1 0′(4′H)-[6H]pyrimido[2,1-c][1,4]oxazepine]-2′-carboxamide] | 1 to 10 |
| O=C(NCc1ccc(F)cc1-n1cncn1)c1nc2n(c(=O)c1O)CCCOC21CCC1 [Example 60, N-[[4-fluoro-2-(1 H-1,2,4-triazol-1-yl)phenyl]methyl]-7′,8′-dihydro-3′-hydroxy-4′-oxo-spiro[cyclobutane-1,10′(4′H)-[6H]pyrimido[2,1-c][1,4]oxazepine]-2′-carboxamide] | 1 to 10 |
| CN(C)S(=O)(=O)c1cc(F)ccc1CNC(=O)c1nc2n(c(=O)c1O)CCCOC21CCC1 [Example 61] | 10 to 100 |
